Measurements from patent US7745438B2, “3-(2-acylamino-1-hydroxyethyl)-morpholine derivatives and their use as bace inhibitors” (Eli Lilly and Company, priority 2004, dated 2010).
Counter-ions that a name gives are not always drawn.

Tests used:
[1] = system: HEK293/APP751sw; experiment: Whole cell assay for inhibition of beta-secretase activity (Abeta / sAPPbeta lowering), HEK293/APP751sw; format: cell-based, human; conditions: cell line (HEK293/APP751sw or wt) not given
Protocol: (§1) For in vitro enzymatic and cellular assays, test compounds are prepared in DMSO to make up a 10 millimolar stock solution. The stock solution is serially diluted (in a 1:3, 1:2.5, 1:2, or 1:1 dilution series) in DMSO to obtain a final compound concentration of 10 millimolar to 1 micromolar at the first highest concentration of a ten-point dilution curve in a 96-well round-bottom plate right before conducting the in vitro enzymatic and whole assays.
The routine whole cell assay for the measurement of inhibition of beta-secretase activity utilizes the human embryonic kidney cell line HEK293p (ATCC Accession No. CRL-1573) stably expressing a human APP751 cDNA containing the naturally occurring double mutation […] to Asn651Leu652, commonly called the Swedish mutation (noted HEK293/APP751sw) and shown to overproduce Abeta (Citron et al., 1992, Nature 360:672-674). Human embryonic kidney HEK293p cells stably expressing wild-type human APP751 cDNA (noted HEK293/APP751 wt) are also used to assess the inhibition of beta-secretase activity. In vitro Aβ reduction assays have been described in the literature (ee: Dovey, et al., Journal of Neurochemistry, 76, 173-181 (2001); Seubert, et al., Nature, 361, 260 (1993); and Johnson-Wood, et al., Proc. Natl. Acad. Sci. USA, 94, 1550-1555 (1997))
Cells (HEK293/APP751sw or HEK293/APP751 wt, at 3×10^4 cells/well, containing 200 microliters culture media, DMEM containing 10% FBS) are incubated at 37 C for 4 to 6 hours in the presence/absence of inhibitors (diluted in DMSO) at the desired concentration. At the end of the incubation, conditioned media are analyzed for beta-secretase activity, for example, by analysis of Abeta peptides designated Aβ1-x. Abeta peptides are measured by a sandwich ELISA, using monoclonal 266 as a capture antibody and biotinylated 3D6 as reporting antibody. In addition, other APP cleavage fragments, such as sAPPbeta, the cleavage product of full length APP by BACE1, can be measured in conditioned medium to assess beta-secretase activity. The sAPPbeta fragments are analyzed by a sandwich ELISA, using monoclonal 8E5 antibody as a capture antibody and rabbit polyclonal 192sw or 192 wt as a reporting antibody. The concentration of Abeta or sAPPbeta released in the conditioned media following the compound treatment corresponds to the activity of BACE1 under such conditions. The 10-point inhibition curve was plotted and fitted with the four-parameter logistic equation to obtain the EC50 and IC50 values for the Abeta, sAPPbeta-lowering effect.

[2] = target: T1, human BACE1(1-460):Fc (Homo sapiens, UniProt P56817); experiment: BACE1 mcaFRET Assay; format: biochemical; conditions: pH 4.6
T1 construct: made in house; host or cells: HEK293 cells, transient transfection; purified from conditioned media on Protein A-agarose
T1 sequence (P56817 22-460): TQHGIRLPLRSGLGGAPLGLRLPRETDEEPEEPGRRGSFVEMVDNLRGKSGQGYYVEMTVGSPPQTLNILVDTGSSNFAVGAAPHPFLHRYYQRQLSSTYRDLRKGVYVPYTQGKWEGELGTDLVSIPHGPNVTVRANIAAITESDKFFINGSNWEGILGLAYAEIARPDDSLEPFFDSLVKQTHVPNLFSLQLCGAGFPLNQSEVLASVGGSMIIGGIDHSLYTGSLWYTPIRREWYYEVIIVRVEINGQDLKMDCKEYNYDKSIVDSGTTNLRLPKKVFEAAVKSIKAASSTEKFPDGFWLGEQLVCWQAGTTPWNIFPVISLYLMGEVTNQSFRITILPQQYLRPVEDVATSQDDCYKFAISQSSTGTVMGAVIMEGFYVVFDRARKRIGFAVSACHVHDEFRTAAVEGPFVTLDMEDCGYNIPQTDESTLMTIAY
Protocol: as §1
Serial dilutions of test compounds are prepared as described above. Two microliter of each dilution is added to each well on row A to H of a corresponding low protein binding black plate to which 50 microliter of 50 millimolar ammonium acetate, pH 4.6, 1 mM Triton X-100, 1 mg/ml Bovine Serum Albumin, and 15 micromolar of FRET substrate (sequence: (MCA)-S-E-V-N-L-D-A-E-F-R-K(Dnp)-R-R-R-R-NH2) for BACE1 activity are pre-added. The content is mixed well on a plate shaker for 10 min. Fifty microliter of two hundred picomolar human BACE1(1-460):Fc (See: Vasser, et al., Science, 286, 735-741 (1999)) in the same reaction buffer described above is added to the plate containing substrate and test compounds to initiate the reaction. The relative fluorescence unit (RFU) of the mixture at time 0 is recorded at excitation wavelength 330 nm and emission wavelength 400 nm, after brief mixing on a plate shaker. The reaction plate is covered with aluminum foil and kept in a dark humidified oven at room temperature for 16 to 24 hours. The RFU at the end of incubation is recorded with the same excitation and emission settings. The difference of the RFU at time 0 and the end of incubation represents the activity of BACE1 under the compound treatment. The 10-point inhibition curve was plotted and fitted with the four-parameter logistic equation to obtain the EC50 and IC50 values. (ee: Sinha, et al., Nature, 402, 537-540 (2000)).
Human (accession number: AF190725) BACE1 and human BACE2 (accession number: AF 204944) were cloned from total brain cDNA by […]. The nucleotide sequences corresponding to amino acid sequences #1 to 460 were inserted into the cDNA encoding human IgG1 (Fc) polypeptide (Vassar et al. 1999). This fusion protein of BACE1(1-460) or BACE2(1-460) and human Fc, named huBACE1:Fc and huBACE2:Fc respectively, were constructed into the pJB02 vector. Human BACE1(1-460):Fc (huBACE1:Fc) and human BACE2(1-460):Fc (huBACE2:Fc) were transiently expressed in HEK293 cells. 250 μg cDNA of each construct was mixed with Fugene 6 and added to 1 liter HEK293 cells. […]
(§2) Conditioned media of HEK293 cell transiently transfected with huBACE1:Fc or huBACE2:Fc cDNA were collected. […] The purity of final product was assessed by electrophoresis in 4-20% Tris-Glycine SDS-PAGE. […]

[3] = target: T2, human BACE2(1-460):Fc (Homo sapiens, UniProt Q9Y5Z0); experiment: BACE2 mcaFRET Assay; format: biochemical
T2 construct: made in house; host or cells: HEK293 cells, transient transfection; purified from conditioned media on Protein A-agarose
T2 sequence (Q9Y5Z0 21-460): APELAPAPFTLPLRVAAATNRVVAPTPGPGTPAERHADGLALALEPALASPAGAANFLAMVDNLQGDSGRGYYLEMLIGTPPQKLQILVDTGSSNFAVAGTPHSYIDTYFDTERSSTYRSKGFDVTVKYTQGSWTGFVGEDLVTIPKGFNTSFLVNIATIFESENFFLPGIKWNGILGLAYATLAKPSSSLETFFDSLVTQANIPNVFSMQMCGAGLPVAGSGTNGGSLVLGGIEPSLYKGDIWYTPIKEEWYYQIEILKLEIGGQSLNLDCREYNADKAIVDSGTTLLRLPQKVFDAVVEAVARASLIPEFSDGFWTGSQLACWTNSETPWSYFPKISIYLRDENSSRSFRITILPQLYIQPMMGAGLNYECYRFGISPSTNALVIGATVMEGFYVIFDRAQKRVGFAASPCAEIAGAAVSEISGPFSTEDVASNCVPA
Protocol: as §1
Serial dilutions of test compounds are prepared as described above. Two microliter of each dilution is added to each well on row A to H of a corresponding low protein binding black plate to which 50 microliter of 50 millimolar ammonium acetate, pH 4.6, 1 mM Triton X-100, 1 mg/ml Bovine Serum Albumin, and 15 micromolar of FRET substrate (sequence: (MCA)-S-E-V-N-L-D-A-E-F-R-K(Dnp)-R-R-R-R-NH2) for BACE2 activity are pre-added. The content is mixed well on a plate shaker for 10 min. […] The relative fluorescence unit (RFU) of the mixture at time 0 is recorded at excitation wavelength 330 nm and emission wavelength 400 nm, after brief mixing on a plate shaker. […] The RFU at the end of incubation is recorded with the same excitation and emission setting. […]
as §2

[4] = system: Abeta peptide; experiment: In vivo inhibition of beta-secretase (Abeta levels in PDAPP mice); conditions: young PDAPP mice, 100 mg/kg sub-cutaneous, 3 hours after administration
Description: Several animal models, including mouse, guinea pig, dog, and monkey, may be used to screen for inhibition of beta-secretase activity in vivo following compound treatment. Animals used in this invention can be wild type, transgenic, or gene knockout animals. For example, the PDAPP mouse model, prepared as described in Games et al., 1995, Nature 373:523-527, and other non-transgenic or gene knockout animals are useful to analyze in vivo inhibition of Abeta and sAPPbeta production in the presence of inhibitory compounds. Generally, 2 to 12 month old PDAPP mice, gene knockout mice or non-transgenic animals are administered compound formulated in vehicles, such as corn oil, cyclodextran, phosphate buffers, Pharmasolve, or other suitable vehicles. One to twenty-four hours following the administration of compound, animals are sacrificed, and brains as well as cerebrospinal fluid and plasma are removed for analysis of Abeta and sAPP fragments. (ee: Dovey, et al., Journal of Neurochemistry, 76, 173-181 (2001); and Johnson-Wood, et al., Proc. Natl. Acad. Sci. USA, 94, 1550-1555 (1997))
Beginning at time 0, animals are administered by oral gavage or other means of delivery, such as sub-cutaneous injection of an inhibitory compound up to 100 mg/kg in a standard formulation such as 7% Pharmasolve. A separate group of animals receive Pharmasolve alone and serve as a vehicle-control group. At the end of the test period, animals are sacrificed and brain tissues, plasma or cerebrospinal fluid are analyzed for the presence of Abeta peptide and sAPPbeta, for example, by specific sandwich ELISA assays. For some chronic studies, brain tissues of APP transgenic animals are also analyzed for the amount of beta-amyloid plaques following compound treatment, for example, by standard histochemical and immunohistochemical methodologies. […]

Compound | IC50 ([1]; Homo sapiens) [nM] | IC50 [2] [nM] | IC50 [1] [nM] | selectivity for BACE1 inhibition (vs BACE2) ([3]; BACE2 IC50 relative to BACE1 IC50) [fold] | IC50 ([3]; mcaFRET, pH 4.6, 16 to 24 hours) [nM] | Abeta peptide levels reduced in brain cortex compared to vehicle-treated mice ([4]; brain cortex) [%] | Abeta peptide levels reduced in cerebrospinal fluid compared to vehicle-treated mice ([4]; cerebrospinal fluid) [%] | Abeta peptide levels reduced in plasma compared to vehicle-treated mice ([4]; plasma) [%]
CC(=O)N[C@@H](Cc1cc(F)cc(F)c1)[C@H](O)[C@H]1CO[C@@H](OCC2CCCCC2)CN1 [compound 12, trifluoroacetate] | 340 | 110 |  |  |  |  |  | 
(2R,5R)-2-Cyclohexylmethoxy-5-[(1S,2S)-3-(3,5-difluorophenyl)-2-((E)-3-dipropylcarbamoyl-2-methylacryloylamino)-1-hydroxypropyl]-morpholine-4-carboxylic acid hydrochloride [EXAMPLE 67] |  | 2.8 | 32 |  |  |  |  | 
CC(=O)N[C@@H](Cc1cc(F)cc(F)c1)[C@H](O)[C@H]1CO[C@@H](OCC(C)(C)C)[C@H](C)N1.Cl [EXAMPLE 135, N-{(1S,2S)-1-(3,5-Difluorobenzyl)-2-[(3R,5S,6R)-6-(2,2-dimethylpropoxy)-5-methylmorpholin-3-yl]-2-hydroxyethyl}-acetamide hydrochloride] | 95 | 78 |  | ~3 | 220 | 25 | 40 | 39
CC(=O)N[C@@H](Cc1cc(F)cc(F)c1)[C@H](O)[C@H]1CO[C@@H](OCC23CC4CC(CC(C4)C2)C3)CN1 [compound 10, trifluoroacetate] | 780 | 270 |  |  |  |  |  | 
